Measured values reported in US20150087856A1, “MELANIN PRODUCTION INHIBITOR” (TAKASAGO INTERNATIONAL CORPORATION, priority 2012, published 2015).

What was measured:
Type in all cases: cell-based
B-16 melanoma cells [1] = assay: Visual Evaluation Test for Melanin Production Inhibition in Pigment Cells; parameters: key to Visual evaluation of melanin production inhibition (whiteness of cell sediment): −: The same as the solvent control (black); +: Slightly different from the solvent control (dark gray); ++: Apparently different from the solvent control (light gray); +++: Cells were not colored (white); conditions: for Visual evaluation of melanin production inhibition (whiteness of cell sediment): B-16 melanoma cells, four days
Method: In plastic culture flasks (25 cm^2), B-16 melanoma cells were seeded at 5×10^4 per flask, and cultured in DMEM (Dulbecco's Modified Eagle's Medium) containing 10% serum [Nippon Suisan Kaisha, Ltd, trade name] in the presence of 5% carbon dioxide at a temperature of 37° C. On the next day, each test sample diluted with ethanol was added at concentrations in the medium of 3.13, 6.25, 12.5, 25, and 50 ppm, and the cells were cultured for further four days. After the culturing was finished, the medium was removed, and the cells were rinsed with phosphate buffered solution (hereinafter, referred to as PBS). Then, the cells were detached from each flask by using trypsin-containing PBS, and were harvested from the cell suspension by centrifugation. After the obtained cells were rinsed once with PBS, the whiteness of the sediment was visually observed. Compounds 2A and 2B were used as comparative materials.
Activity: The activity was evaluated by using the following four grades. −: The same as the solvent control (black) +: Slightly different from the solvent control (dark gray) ++: Apparently different from the solvent control (light gray) +++: Cells were not colored (white)

B-16 melanoma cells [2] = assay: Quantification Test for Melanin Production Inhibition in Pigment Cells (melanin inhibition ratio); conditions: 6.25 ppm; for Melanin production inhibition ratio: B-16 melanoma cells, two days; for Melanin production-inhibitory activity compared with arbutin in the quantification test: comparison with arbutin
Method: (§1) In plastic culture flasks (25 cm^2), B-16 melanoma cells were seeded at 5×10^4 per flask, and cultured in DMEM containing 10% serum in the presence of 5% carbon dioxide at a temperature of 37° C. After culturing for three days, each test sample diluted with ethanol was added at a concentration in the medium of 6.25 ppm, and the cells were culture for further two days. After the culturing was finished, the medium was removed, and the cells were rinsed with phosphate buffered solution (hereinafter referred to as PBS). Then, the cells were detached from each flask by using trypsin-containing PBS, and harvested from the cell suspension by centrifugation. To the obtained cells, 2 ml of DMEM was added, and the cells were dispersed by gentle pipetting. Of the DMEM, 100 μl was diluted with DMEM to achieve 1×10^4 to 5×10^5 cells/ml. Then, the number of the cells was counted with Scepter™ 2.0 automated cell counter (Merck Millipore), and the cell growth ratio was determined. The cell growth ratio was determined by the following formula.
The rest of the cell suspension was again centrifuged, and the medium was removed. After that, an operation in which the cells were rinsed with 1 ml of very cool 5% trichloroacetic acid and centrifuged was repeated three times, and further the cells were rinsed twice by adding 1 ml of ethanol/ethyl ether (3:1 volume ratio) and centrifuged. Finally, the cells were rinsed once with 1 ml of ethyl ether, centrifuged, and air-dried over night. To the dried cells, 2 N NaOH was added, and melanin in the cells was dissolved in a water bath of 60° C. After cooling, the absorbance at 415 nm was measured by using a microplate reader (BIO-RAD MICROPLATE READER Benchmark-). From the measured value, the amount of melanin per 10^6 cells was calculated by conversion using a standard curve obtained by using synthesized melanin (NACALAI TESQUE, INC.), and the melanin inhibition ratio was determined. The melanin inhibition ratio was determined by the following formula:
Melanin inhibition ratio (%)=[(amount of melanin of control−amount of melanin of sample)/(amount of melanin of control)]×100

B-16 melanoma cells [3] = assay: Cell growth ratio in the quantification test (cell count); conditions: 6.25 ppm, two days, relative to control
Method: as §1
Cell growth ratio (%)=(number of cells of sample/number of cells of control)×100

| Molecule | Visual evaluation of melanin production inhibition (whiteness of cell sediment) (B-16 melanoma cells [1]; 6.25 ppm in medium) | Visual evaluation of melanin production inhibition (whiteness of cell sediment) (B-16 melanoma cells [1]; 12.5 ppm in medium) | Visual evaluation of melanin production inhibition (whiteness of cell sediment) (B-16 melanoma cells [1]; 3.13 ppm in medium) | Melanin production inhibition ratio (B-16 melanoma cells [2]) | Melanin production-inhibitory activity compared with arbutin in the quantification test (B-16 melanoma cells [2]) | Cell growth ratio (B-16 melanoma cells [3]) | Activity compared with arbutin in the visual evaluation test (B-16 melanoma cells [1]; comparison with arbutin) | Activity compared with arbutin in the visual evaluation test at 6.25 ppm (B-16 melanoma cells [1]; 6.25 ppm, comparison with arbutin) | Visual evaluation of melanin production inhibition (whiteness of cell sediment) (B-16 melanoma cells [1]; 25 ppm in medium) | Visual evaluation of melanin production inhibition (whiteness of cell sediment) (B-16 melanoma cells [1]; 50 ppm in medium) |
| --- | --- | --- | --- | --- | --- | --- | --- | --- | --- | --- |
| CC(C)[C@H]1CC[C@@H](C)C[C@H]1O (relative stereo) [Compound 1K, (1R*,2R*,5R*)-2-isopropyl-5-methylcyclohexanol] | + | +++ |  |  |  |  |  |  |  |  |
| CC1CCC(C(C)C)C(OCC(O)CO)C1 (stereo not shown) [Compound 1B, 3-(2-isopropyl-5-methylcyclohexyloxy)propane-1,2-diol] | ++ |  | + | 37.0% | higher melanin production-inhibitory activity than arbutin | 93.2% |  |  |  |  |
| CC(O)COC1CC(C)CCC1C(C)C (stereo not shown) [Compound 1F, 1-(2-isopropyl-5-methylcyclohexyloxy)propan-2-ol] | ++ | +++ |  |  |  |  | almost the same activity as that of arbutin |  |  |  |
| CC(=O)CC(=O)OC1CC(C)CCC1C(C)C (stereo not shown) [Compound 1G, 2-isopropyl-5-methylcyclohexyl 3-oxobutyrate] | +++ | +++ | + | 41.5% | higher melanin production-inhibitory activity than arbutin | 87.8% |  | higher activity than arbutin |  |  |
| CCNC(=O)C1CC(C)CCC1C(C)C (stereo not shown) [Compound 2A, N-ethyl-5-methyl-2-isopropylcyclohexane carboxamide, reference compound] | − | + |  |  |  |  |  |  | ++ | +++ |
| 2-isopropyl-5-methylcyclohexanols [Compound 1H] | ++ | +++ | + | 49.0% | higher melanin production-inhibitory activity than arbutin | 102.1% | almost the same activity as that of arbutin |  |  |  |
| CC1CCC(C(C)C)C(OCCOCCO)C1 (stereo not shown) [Compound 1E, 2-(2-(2-isopropyl-5-methylcyclohexyloxy)ethoxy)ethanol] | + | ++ | − | 23.3% |  | 96.4% |  |  |  |  |
| CNC(=O)C(C)(C(C)C)C(C)C [Compound 2B, N,2,3-trimethyl-2-isopropylbutanamide, reference compound] |  |  |  |  |  |  |  |  | − | + |
| CC(C)[C@@H]1CC[C@@H](C)C[C@@H]1O (relative stereo) [Compound 1I, (1S*,2S*,5R*)-2-isopropyl-5-methylcyclohexanol] | + | +++ |  |  |  |  |  |  |  |  |
| CC(O)CC(=O)OC1CC(C)CCC1C(C)C (stereo not shown) [Compound 1D, 2-isopropyl-5-methylcyclohexyl 3-hydroxybutyrate] | ++ | +++ | − | 52.8% | higher melanin production-inhibitory activity than arbutin | 104.9% | almost the same activity as that of arbutin |  |  |  |
| CC1CCC(C(C)C)C(OCCCO)C1 (stereo not shown) [Compound 1C, 3-(2-isopropyl-5-methylcyclohexyloxy)propan-1-ol] | ++ | +++ | − | 52.0% | higher melanin production-inhibitory activity than arbutin | 103.1% | almost the same activity as that of arbutin |  |  |  |
| C=C(C)[C@@H]1CC[C@@H](C)C[C@H]1O [Compound 1A, (1R,2S,5R)-5-methyl-2-isopropenylcyclohexanol] | − | ++ |  |  |  |  |  |  | +++ |  |
| OC[C@H]1O[C@@H](Oc2ccc(O)cc2)[C@H](O)[C@@H](O)[C@@H]1O [Arbutin, arbutin, reference compound] | ++ | +++ | + | 35.5% |  | 94.1% |  |  |  |  |
| CC(C)[C@H]1CC[C@@H](C)C[C@@H]1O (relative stereo) [Compound 1J, (1S*,2R*,5R*)-2-isopropyl-5-methylcyclohexanol] | + | +++ |  |  |  |  |  |  |  |  |
